Patent publication US11485993B2, “Therapeutic drug monitoring” (Fastinov S.A., priority 2017, dated 2022)

Key:
E. coli ATCC 25922 = assay: Flow cytometric measurement of the antimicrobial activity of colistin in human plasma; assay type: cell-based
Description: Serial dilutions of colistin (Sigma), ranging between 0.008 and 2 μg/ml, were inoculated in human plasma (free of colistin) and incubated with E. coli ATCC 25922 during 60 minutes and afterwards stained with a fluorescent dye and analyzed in a flow cytometer (Accuri, BD) using a protocol previously optimized (FIG. 3): a flow cytometric template of cell analysis was defined in order to include the majority of the bacterial population and at least 20,000 cells are analyzed according size, complexity and intensity of fluorescence on the different fluorescent channels.

S. aureus ATCC 29213 = assay: Flow cytometric measurement of the antimicrobial activity of vancomycin in human serum; assay type: cell-based; settings: S. aureus ATCC 29213, flow cytometry, FIGS. 5A and 5B
Description: Material and Methods. S. aureus ATCC 29213 was incubated for 1 hour with serial concentrations of vancomycin (4 μg/ml to 0.03 μg/ml) in donor drug free human serum and stained with adequate fluorochrome. The intensity of fluorescence and the changes in the scattergram of the bacterial population were recorded after flow cytometry analysis. Twenty samples of serum collected from patients receiving vancomycin were obtained from the biochemistry lab. The vancomycin drug concentrations were analyzed by Architect iVancomycin (Abbott) using the Architect i1000 SR analyzer (Abbott). Architect iVancomycin is an in vitro chemiluminescent microparticle immunoassay (CMIA) for the quantitative measurement of vancomycin in human serum or plasma. In parallel, serum samples were incubated with the S. aureus control strain, after 10 serial dilutions (1:2) and analyzed by flow cytometry (Accury, BD) according the protocol described in Example 1. A flow cytometric template of cell analysis was defined in order to include the majority of the bacterial population. A comparison of the concentrations obtained with the Architect iVancomycin method and with the new flow cytometric method was performed using Student's T test.

## colistin
E. coli ATCC 25922; E. coli ATCC 25922, flow cytometry scattergrams
  morphological changes of the bacterial cell population after serial increasing concentrations: Morphological changes were evident
E. coli ATCC 25922; E. coli ATCC 25922, flow cytometry, FIG. 4
  amount of cells at the acquisition gate after incubation with increasing concentrations: a dose-dependent effect was achieved

## CN[C@H](CC(C)C)C(=O)N[C@H]1C(=O)N[C@@H](CC(N)=O)C(=O)N[C@H]2C(=O)N[C@H]3C(=O)N[C@H](C(=O)N[C@H](C(=O)O)c4cc(O)cc(O)c4-c4cc3ccc4O)[C@H](O)c3ccc(c(Cl)c3)Oc3cc2cc(c3O[C@@H]2O[C@H](CO)[C@@H](O)[C@H](O)[C@H]2O[C@H]2C[C@](C)(N)[C@H](O)[C@H](C)O2)Oc2ccc(cc2Cl)[C@H]1O [vancomycin]
S. aureus ATCC 29213
  cellular lesion with increasing concentration (reduction of cell density plot, increase of intensity of fluorescence): a dose effect cellular lesion is evident
